From patent US12059464B2, “Combination therapy involving antibodies against Claudin 18.2 for treatment of cancer” (Astellas Pharma Inc., priority 2012, dated 2024)

Key:
[1] = system: HEK293~CLDN18.2 transfectants; test: Early treatment of HEK293~CLDN18.2 tumor xenografts; format: in vivo, nude mice; conditions: 200 μg twice per week for 6 weeks i.v./i.p., start 3 days after inoculation
Excerpt: (§1) Moreover, advanced tumor treatment experiments were initiated up to 9 days after tumor cell inoculation when tumors had reached volumes of about 60-120 mm^3.
Nude mice were subcutaneously inoculated with 1×10^7 HEK293˜CLDN18.2 transfectants. Treatment of 10 mice per group started 3 days after tumor inoculation. […] Not only time to death was prolonged, but 4 of 10 mice survived the entire observation period of 210 days.

[2] = system: NCI-N87~CLDN18.2 xenograft tumors; test: Combination therapy with IMAB362 and EOF regimen on NCI-N87~CLDN18.2 xenografts
Protocol: NCI-N87˜CLDN18.2 xenograft tumors were inoculated by injection of 1×10^7 NCI-N87˜CLDN18.2 cells subcutaneous into the flank of 9 mice for each treatment group. […] Tumor size and animal health was monitored semi-weekly. […] The size of s.c. tumors was measured twice weekly (mean+SEM; *p<0.05). […] Mice were sacrificed, when tumor reached a volume of 1400 mm^3.

[3] = Toxicity and PK/TK profile studies (all toxicity studies); format: in vivo, mice and cynomolgus monkeys
Excerpt: (§2) This compartimentalization is lost upon malignant transformation rendering the epitope drugable by IMAB362.

[4] = Repeated dose toxicity study in mice; format: in vivo; conditions: weekly administration for 3 months, highest dose levels 400 mg/kg
Excerpt: as §2

[5] = system: HEK293~CLDN18.2 tumor xenografts; test: Treatment of advanced HEK293~CLDN18.2 tumor xenografts; format: in vivo, nude mice
Excerpt: as §1
(§3) Treatment of 9 to 10 mice per group was initiated when mean tumor volumes reached 88 mm^3 (62-126 mm^3). […] All mice in the groups treated with either PBS or isotype control died within 50-100 days. […] Three of these mice survived the entire observation period (FIG. 20). Importantly, antitumoral efficacy in vivo depends on the presence of the target on the tumor cells.

[6] = molecular target: first extracellular domain (ECD1) of CLDN18.2 (Homo sapiens, UniProt P56856); test: Binding of IMAB362 to CLDN18.2
[7] = system: NUGC-4~CLDN18.2 xenografts; test: IMAB362 immunotherapy of NUGC-4~CLDN18.2 xenografts; design: species or system mice; conditions: mouse, in vivo
[8] = system: CLDN18.2-transfected HEK293 cells; test: IMAB362 with ZA/IL-2 induced Vγ9Vδ2 T cells on HEK293~CLDN18.2 tumors in NSG mice; format: in vivo; conditions: 200 μg IMAB362 semi-weekly in the presence of human γδ T cells and ZA (plus IL-2)
Protocol: NSG mice lack mature T cells, B cells, natural killer (NK) cells, multiple cytokine signaling pathways, and they have many defects in innate immunity, whereas the niches in the primary and secondary immunological tissues are permissive to colonization by human immune cells.
NSG mice were inoculated subcutaneously with 1×10^7 CLDN18.2-transfected HEK293 cells. On the same day, mice received 8×10^6 human PBMCs enriched for Vγ9Vδ2 T cells, which were cultured for 14 days in ZA-supplemented medium. […] To maintain human T cells functional, IL-2 was administered semi-weekly and ZA weekly. […] In addition to 9 mice treated as described, two control groups of mice were established.

[9] = system: CLDN18.2-positive cancer cell lines; test: IMAB362 treatment of mice bearing CLDN18.2-positive cancer cell lines; conditions: mouse, in vivo
[10] = system: CLDN18.2-positive (NUGC-4, KATO III) and negative (SK-BR-3) human target cell lines; test: IMAB362 ADCC with ZA/IL-2 expanded effector cells on CLDN18.2-positive and negative target cell lines; format: cell-based
Protocol: These effector cell cultures were used in ADCC assays with CLDN18.2-positive (NUGC-4, KATO III) and negative (SK-BR-3) human target cell lines (E:T ratio 40:1). […] ADCC was measured in luciferase assays; cf. FIG. 15a. […] FIG. 15b. Same experiment as described in (a) was performed using NUGC-4 as target cells; cf. FIG. 15c. […] A purity of more than 97.0% Vγ9Vδ2 T cells in lymphocytes was obtained.

[11] = system: NUGC-4 gastric cancer cells; test: IMAB362-mediated ADCC on chemotherapy-pretreated NUGC-4 cells; format: cell-based, human; conditions: NUGC-4 pretreated with 5-FU+OX, EOF or FLO for 96 hours
Protocol: IMAB362-mediated ADCC was investigated using NUGC-4 gastric cancer cells as target, which were either pretreated with 10 ng/ml 5-FU and 500 ng/ml oxaliplatin (5-FU+OX), 10 ng/ml epirubicin, 500 ng/ml oxaliplatin and 10 ng/ml 5-FU (EOF) or 10 ng/ml 5-FU, 50 ng/ml folinic acid and 500 ng/ml oxaliplatin (FLO) for 96 hours (effector:target ratio 40:1) or untreated. EC50 values were obtained from 7 healthy donors for untreated and EOF, FLO or 5-FU+OX pretreated NUGC-4 cells.

[12] = system: NUGC-4~CLDN18.2 xenograft tumors; test: Combination therapy with IMAB362 and EOF regimen on NUGC-4~CLDN18.2 xenografts; format: in vivo, nude mice; conditions: chemotherapy day 3, 10, 17, 24; IMAB362 weekly
Protocol: Mice were treated on day 3, 10, 17 and 24 with chemotherapeutic agents. IMAB362 treatment was continued weekly.

[13] = system: CLDN18.2-negative HEK293 tumor cells; test: IMAB362 treatment of mice engrafted with CLDN18.2-negative tumor cells; format: in vivo; conditions: CLDN18.2-negative tumors
Excerpt: as §3

[14] = system: NUGC-4 cells expressing CLDN18.2; test: IMAB362 ADCC on NUGC-4 cells with PBMCs cultivated with IL-2 with or w/o ZA (luciferase assay); format: cell-based, human; conditions: PBMCs cultivated for 14 days with ZA/IL-2; IMAB362 0.26 ng/ml-200 μg/ml
Protocol: Specific killing was determined in luciferase assays; cf. FIG. 14a. […] NUGC-4 served as target cells.

[15] = Repeated dose toxicity studies in cynomolgus monkeys; format: in vivo; conditions: up to 5 weekly applications of up to 100 mg/kg
Excerpt: as §2

[16] = system: CLS-103~cldn18.2 allograft tumors; test: Combination therapy with IMAB362 and EOF on CLS-103~cldn18.2 allograft tumors; format: in vivo, NMRI mice; conditions: EOF i.p. day 3, 10, 17, 24; IMAB362 800 μg i.v.; IL-2 3000 IE s.c. semi-weekly
Excerpt: CLS-103˜cldn18.2 allograft tumors were inoculated by injection of 1×10^6 CLS-103˜cldn18.2 cells subcutaneous into the flank of 10 NMRI mice for each treatment group. […] After end of chemotherapy, IMAB362 and IL-2 treatment was continued for the whole observation period. Tumor size and animal health were monitored semi-weekly.

[17] = system: NUGC-4 gastric cancer cells; test: NUGC-4 gastric tumor xenograft model
Excerpt: Tumor sizes were monitored twice weekly.
Mice were stratified size-dependently into treatment groups (FIG. 21).

[18] = system: NCI-N87~CLDN18.2 xenograft tumors; test: IMAB362 immunotherapy of NCI-N87~CLDN18.2 gastric carcinoma xenografts
Excerpt: NCI-N87˜CLDN18.2 xenograft tumors were inoculated subcutaneously by injection of 1×10^7 NCI-N87˜CLDN18.2 cells into the flank of 8 nude mice (female, 6 weeks old) per treatment group. […] Intravenous administration was continued weekly for the whole observation time. Tumor size and animal health was monitored semi-weekly. […] Mice were sacrificed, when tumor reached a volume of 1400 mm^3

NUGC-4 xenografts = test: In vivo tumor targeting of Dyelight 680-labeled antibodies (fluorescence imaging); design: species or system nude mice
[19] = Phase I clinical study, single intravenous administration; format: in vivo, human
Excerpt: IMAB362 is in early clinical testing. A phase I clinical study has been conducted in human. […] In an ongoing phase IIa clinical study IMAB362 is given repetitively.

IMAB362: chimeric IgG1 antibody directed against CLDN18.2, developed by Ganymed Pharmaceuticals AG
mice surviving the entire observation period of 210 days [1]: 4 of 10
tumor growth ([2]; EOF i.p. day 4, 11, 18, 25, IMAB362 800 μg i.v. weekly): highly significant suppressed tumor growth
median survival ([2]; saline control 59 days, sacrifice at 1400 mm^3): 76 days
gastric toxicity ([3]; any toxicity study): no gastric toxicity
adverse effects on male or female reproductive organs ([3]; in vivo): No adverse effects
immune activation and cytokine release ([3]; in vivo): does not induce immune activation and cytokine release
systemic or local toxicity ([3]; repeated i.v. doses): No signs of systemic or local toxicity
tolerability of repeated i.v. doses [4]: well tolerated
median survival time ([5]; 200 μg twice per week for 6 weeks, start at mean tumor volume 88 mm^3, controls 25 days): 47 days
mice surviving the entire observation period ([5]; 9 to 10 mice per group): Three
affinity and specificity for CLDN18.2 ECD1 [6]: high affinity and specificity
survival [7]: significantly (p<0.05) longer survival
tumor sizes at day 14 of treatment [7]: significant (p<0.05) smaller tumor sizes
outgrowth of CLDN18.2-positive tumors [8]: significantly inhibited and nearly abrogated
mice showing regression of their tumor [9]: up to 40%
ADCC activity with purified (>97%) Vγ9Vδ2 T cells ([10]; NUGC-4 targets, cells sorted from ZA/IL-2-cultured PBMC on day 14): retained and partly improved
ADCC activity on CLDN18.2-positive versus CLDN18.2-negative cell lines ([10]; ZA/IL-2 cultured effector cells, E:T ratio 40:1): Strong ADCC activity against CLDN18.2-positive, but not CLDN18.2-negative human tumor cell lines
maximal lysis in IMAB362-mediated ADCC versus untreated target cells [11]: higher maximal lysis
tumor growth [12]: inhibited significantly the tumor growth
antitumoral effects [13]: No antitumoral effects
ADCC activity against CLDN18.2-positive NUGC-4 cells [14]: Strong IMAB362-dependent ADCC activity
tolerability of repeated i.v. doses [15]: well tolerated
tumor growth inhibition [16]: no significant tumor growth inhibition
tumor growth compared to controls ([17]; 200 μg twice weekly i.v./i.p. starting 6 days after inoculation, p<0.05): significant inhibited
tumor volumes at day 21 after tumor inoculation compared to control mice ([17]; p<0.05): significant smaller
median survival time ([17]; treatment initiated at about 109 mm^3, versus 25 days, non-significant): 31 days
tumor growth rate ([17]; treatment initiated at mean tumor size of about 109 mm^3): significantly reduce tumor growth rate
tumor growth ([18]; 800 μg i.v. weekly from day 5, versus saline): inhibited highly significant (p<0.001) tumor growth
survival time ([18]; 800 μg i.v. weekly, sacrifice at 1400 mm^3): significantly (p<0.05) longer survival time
localisation of labeled antibody, live imaging (NUGC-4 xenografts; 24 hours after i.v. injection, 80 μg Dyelight 680-labeled antibody): accumulates strongly and exclusively in the tumor xenografts
retention of labeled antibody signal in tumor (NUGC-4 xenografts; 120 hours after injection): detectable in comparable intensity even after 120 hours
tolerability in patients ([19]; single i.v. administration, 33-1000 mg/m^2, observed for 28 days): very well tolerated
tumor markers in one patient ([19]; within 4 weeks after treatment): decreased significantly
